Residues, ends and D or L forms follow the SMILES beside them. *: point of attachment. AFC = O=c1cc(C(F)(F)F)c2ccc(N*)cc2o1; Cbz = O=C(OCc1ccccc1)*; Boc = CC(C)(C)OC(=O)*
Assays:
Format in all cases: biochemical
[1] = test system: purified Taenia solium cysteine protease; assay: Competitor assay: vehicle inhibition of cleavage of high Vmax AFC substrate cocktails (Step III); details: purified protease; P = inhibition with first (1.4%) cocktail, M = inhibition with last (7.4%) cocktail
Procedure: (We employed “Vmax” here although Kcat could also be used). Due to the lower number of substrates, a percentage was not chosen for the “BOTTOM %” substrates. Alternately, all substrates which were not cleaved as determined by a value of 10 μM/hr or less, were chosen to be tested in this step for competitive ability. From this point forth, the term “vehicle” will represent low Vmax substrates that were capable of inhibiting cleavage of the percent cocktails. In this instance, we tested for “vehicles” which inhibited cleavage of the TOP 1.4% cocktail (they were delivered into the active site). Based upon our results from Step II, the top 1.4% cocktail was composed of Z-Phe-Arg-AFC, the highest cleaved substrate.
The experiment began with a competitor test between the noncleaved low Vmax substrates and the highest Vmax substrate, Z-Phe-Arg-AFC. Concentrations were varied between the low Vmax substrate and Z-Phe-Arg-AFC, as described above under “refinement of assay” until a relative inhibition profile was obtained.
The mixture was allowed to equilibrate for a period of 30 minutes. Finally, active purified enzyme was added to the tubes at a concentration which was always 50 times less than the concentration of the high and low Vmax substrates, in order to insure saturation conditions. This concentration varied from purification to purification and the amount added depended upon the yield and specific activity of the purified protease.
Positive controls were set up similarly as described for test controls, except that solvent was added in substitution for the low Vmax substrate (in a volume equal to the low Vmax volume addition). All of the substrates could be dissolved in dimethylsulfoxide (DMSO), and therefore, this was the solvent of choice. Negative controls were set up by adding the low Vmax and the high Vmax substrate in a tube without the protease. All potential non-proteolytic induced liberation of AFC was therefore controlled for in this tube (a feature which also insured stability of the AFC substrates, since these substrates will freely liberate AFC when unstable). A tube set will be established for this negative control.
All controls were set up in triplicate, and experiments repeated a minimum of five times. The assays were incubated at 37° C., for 18 hours overnight.
Percent inhibition was calculated as: [formula]
A 2.9% cocktail of the high Vmax substrates was made. This was composed of Z-FR-AFC and the second most cleaved substrate, Z-FAR-AFC. The vehicles promoted from the initial screenings above were again tested for competitive inhibition ability with the new cocktails. Their concentrations were set identically to those which were “fixed” in the previous protocols. […]

[2] = test system: Taenia solium crude mix; assay: Competitor assay with crude mix as source of the protease (Step III)
Procedure: In order to prepare the Taenia solium “crude mix” , dry frozen Taenia solium cysts were obtained from 6-12 month old cysticercotic pigs from villages in an endemic area of porcine cysticercosis in Mexico. Metacestodes were carefully dissected from the parasitized tissues, washed three times with PBS, and lyophilized. Parasite extracts were prepared by suspending 0.1 grams of dry frozen cysts in 10 ml of extraction buffer (0.4 M citrate, pH 4.9). The cysts were vortexed for three five-minute intervals with intermittent incubations (5 min) at 4 ° C. Particulate material was removed by centrifugation (20,000 x g, 120 min) and the resulting soluble fraction filtered ([…]). In assay buffers, the detectable amount of the crude mix, as described above, was employed and incubated with the target substrates.
One of the most intriguing findings in this experiment was that a highly similar inhibition pattern for the competitor assay was noted when the crude mix was employed as the source of the target protease. Although there were some variations in the effects of inhibitor dilution, the most highly ranked vehicles remained inhibitory consistently in comparison to the profile with the target protease. The relative profile and composition of the top tiers of vehicles was identical. Z-LLL-AFC, Z-LLY-AFC, Mu-LY-AFC, Boc-VPR-AFC, Z-SY-AFC, Z-RR-AFC, Z-FLF-AFC, Z-LGR-AFC consistently presented as the top eight vehicles (FIG. 5b), respectively, based upon their V values (Table 2). […] It was notable that the three vehicles had very similar V values. […] As was mentioned, this vehicle along with Z-LLL-AFC and Z-LLY-AFC, were consistently the most inhibitory vehicles. The V values of the most inhibitory vehicle series are shown below in Table 2. Again, a clear break between the first and second tier vehicles could be noted with the V value.

[3] = test system: purified Taenia solium cysteine protease; assay: Screen of AFC-linked synthetic substrates for cleavage (Step II); details: pH 4.9, 18 h, 37° C
Procedure: In this step, the most efficacious substrate for detection of the cysteine protease (high Kcat substrate) was determined in vitro along with those substrates which were not well cleaved (low kcat substrates). From this point forth, the following conditions refer to all assays: “assay buffer” refers to 0.4 M Citrate, pH 4.9 (the pH optima of the protease). Incubation time was 18 hours at 37° C. These conditions were determined by our preliminary data to be best for kinetic evaluation of the protease. […] The experiments were conducted in […] Borosilicate mini-culture tubes (Fisher Scientific), and a fluorometer (Turner) was employed for detection of AFC cleavage.
Approximately 1 ug (or a proteolytically detectable amount) of the purified target cysteine protease was incubated individually, with 1 μg of each of the available substrates in 500 μL of assay buffer. During this setup, the substrate was pre-incubated in the assay buffer for a short period of time (20 minutes) in order to reach an equilibrated status before the addition of the protease. Cleavage assessments were based upon the property of the protease to cleave synthetic peptide substrates linked at the C-terminus to 7-Amino-4-Trifluoromethyl Coumarin (AFC) as previously described. AFC linked tripeptides, dipeptides, and monopeptides, (with a variety of permutations at P3-P1) were available from Enzyme Systems Products (Livermore, CA), and were used as the source of the subset. Following incubation of enzyme preparations overnight (18 h, 37 ° C.) with peptide in assay buffer (Citrate, pH 4.9, supplemented with 0.01 M cysteine), free AFC concentrations were measured fluorometrically (excitation […]). The proteolytic cleavage released the AFC group, which was measurable as a free molecule by a standard fluorometer and converted into molar quantities, based upon a previously established standard curve. The simplicity of AFC detection by the fluorometer was a key factor which quickened and simplified the procedures.
In the assay, 1 ug of the purified Taenia cysteine protease was added to a saturating amount of Z-Phe-Arg-AFC (4×10^−5 M) in assay buffer. The experiment was conducted in triplicate and repeated at least 5 times until we were certain that variability in AFC cleavage was not statistically significant.
Vmax was calculated for the cleavage of substrates by the purified target protease and Vmax was calculated for substrates cleaved by the crude mix protease using conventional kinetic modeling calculations already described in the art.

[4] = test system: purified Taenia solium cysteine protease; assay: Protease inactivator inhibition assay (EC100, Ki; Step VII)
Source text: Once the protease inactivators were synthesized in the organic laboratory, they were to be tested for the lowest efficacious concentrations at which they induced 100% inhibition of the target protease (EC100). The top percent cocktail that was employed in the final vehicle selection step of Step III was employed as the source of competition for the inhibitors. In this case, this was the […] which was comprised of Z-FR-AFC, Z-FAR-AFC, Z-AP-AFC, Z-AAK-AFC, and Z-VLR-AFC. The final result would be a ranking of transition state candidate protease inactivators with a high ranking directly correlating to a low ECIoo value. The following steps describe the assay:
Step A: Initial Screening. To set up the test control, each protease inactivator was first incubated with the 5% cocktail (which provided the final differentiation of vehicles in Step III). To begin with, the protease inactivator was incubated at a concentration of 3×10^−9M in 500 μl of assay buffer (0.2 M Citrate, pH 4.9 supplemented with 10mM L-cysteine). This concentration was determined, after a series of inhibitor dilutions identified, to be the best inhibitor concentration at which a differentiation in inhibitor potential could be noted. Next, a concentration equal to 4×10^−5M for each of the individual cocktail components, was added to the mix. The components were allowed to equilibrate for a period of 30 minutes. […]
Percent inhibition was calculated as: [formula] […]
Step C: Determination ofInhibitor Ki and mode of inhibition, and re-ranking of EC100 list with inhibitor Ki. Ki of each of the top ranked protease inactivators, based upon low EC100 values, was assessed next for the top 5 EC100 inhibitors.
In order to determine Ki, all of the high Vmax cocktail substrates were employed for Ki determination (since Ki of the inhibitor for the enzyme is the same regardless of the substrate). To insure the highest accuracy, Ki was to be determined upon a minimum of at least three of the high Kcat substrates. […]

## CC(C)C[C@H](NC(=O)OC(C)(C)C)C(=O)NCC(=O)N[C@@H](CCCNC(=N)N)C(=O)Nc1ccc2c(C(F)(F)F)cc(=O)oc2c1 [B-LGR-AFC] (Boc-Leu-Gly-Arg-{AFC})
[1]
  V Value (vehicle inhibition quotient, V=P*M): 0.07
[2]
  V Value (vehicle inhibition quotient, V=P*M): 0.02

## CC(C)[C@H](NC(=O)OC(C)(C)C)C(=O)N1CCC[C@H]1C(=O)N[C@@H](CCCNC(=N)N)C(=O)Nc1ccc2c(C(F)(F)F)cc(=O)oc2c1 [B-VPR-AFC, Boc-Val-Pro-Arg-AFC] (Boc-Val-Pro-Arg-{AFC})
[3]
  cleavage as substrate (Vmax): noncleavable

## CC(C)C[C@H](NC(=O)[C@H](Cc1ccccc1)NC(=O)OCc1ccccc1)C(=O)N[C@@H](Cc1ccccc1)C(=O)Nc1ccc2c(C(F)(F)F)cc(=O)oc2c1 [Z-FLF-AFC] (Cbz-Phe-Leu-Phe-{AFC})
[1]
  V Value (vehicle inhibition quotient, V=P*M): 0.100
[2]
  V Value (vehicle inhibition quotient, V=P*M): 0.10

## CC(C)C[C@H](NC(=O)OCc1ccccc1)C(=O)NCC(=O)N[C@@H](CCCNC(=N)N)C(=O)Nc1ccc2c(C(F)(F)F)cc(=O)oc2c1 [Z-LGR-AFC, Z-Leu-Gly-Arg-AFC] (Cbz-Leu-Gly-Arg-{AFC})
[3]
  cleavage as substrate (Vmax): noncleavable

## CC(C)C[C@@H](/C=C/S(C)(=O)=O)NC(=O)[C@H](CC(C)C)NC(=O)[C@H](CC(C)C)NC(=O)OCc1ccccc1 [Z-LLL-VS, Z-Leu-Leu-Leu-vinylsulfone]
[4]
  ranking of protease inactivators by inhibition / EC100: top inhibitors

## NC(N)=NCCCC(NC(=O)C(Cc1ccccc1)NC(=O)OCc1ccccc1)C(=O)Nc1ccc2c(C(F)(F)F)cc(=O)oc2c1 (stereo not drawn) [Z-Phe-Arg-AFC] (Cbz-Phe-Arg-{AFC}; configuration not given here)
[3]
  cleavage as substrate (Vmax): highest Vmax

## NC(N)=NCCC[C@H](NC(=O)OCc1ccccc1)C(=O)N[C@@H](CCCN=C(N)N)C(=O)Nc1ccc2c(C(F)(F)F)cc(=O)oc2c1 [Z-RR-AFC] (Cbz-Arg-Arg-{AFC})
[2]
  V Value (vehicle inhibition quotient, V=P*M): 0.09

## O=C(N[C@@H](CO)C(=O)N[C@@H](Cc1ccc(O)cc1)C(=O)Nc1ccc2c(C(F)(F)F)cc(=O)oc2c1)OCc1ccccc1 [Z-SY-AFC] (Cbz-Ser-Tyr-{AFC})
[1]
  V Value (vehicle inhibition quotient, V=P*M): 0.090
[2]
  V Value (vehicle inhibition quotient, V=P*M): 0.09

Source: patent publication US20030077653A1, “Method for the identification of active site protease inactivators” (The University of Georgia Research Foundation, Inc., priority 2000, published 2003)
